Test results taken from EP3133117A1, “WATER-BASED POLYMER SYSTEM FOR LABELING ADHESIVE APPLICATIONS” (Henkel AG & Co. KGaA, priority 2015, dated 2017).
In brackets after ≈: the same amount, converted by molar mass. Where two headings read alike, the source gives them in different places.

How the values were obtained:
[1] = cyclodextrins; values taken from Sabadini et al.; 25°C; cited from earlier work
[2] = Solubility of the organic additives in water; conditions: for solubility: water, 25 °C, thermodynamic from solid
Source text: For the determination of the solubility of the organic additives described herein, the GC-based method described above in connection with the solubilities of the monomers may be used. […] The method is basically measuring residual amount of CD in a saturated solution after drying.

Compound | Solubility in water [1] | solubility [2] | other results
OC[C@H]1O[C@@H]2O[C@H]3[C@H](O)[C@@H](O)[C@@H](O[C@H]4[C@H](O)[C@@H](O)[C@@H](O[C@H]5[C@H](O)[C@@H](O)[C@@H](O[C@H]6[C@H](O)[C@@H](O)[C@@H](O[C@H]7[C@H](O)[C@@H](O)[C@@H](O[C@H]1[C@H](O)[C@H]2O)O[C@@H]7CO)O[C@@H]6CO)O[C@@H]5CO)O[C@@H]4CO)O[C@@H]3CO [α-cyclodextrin] | 129.5 mg/mL (≈ 133 mM) | – | –
CC(=O)OCC(COC(C)=O)OC(C)=O [1,2,3-propanetriol triacetate] | – | 72 mg/mL | –
OC[C@H]1O[C@@H]2O[C@H]3[C@H](O)[C@@H](O)[C@@H](O[C@H]4[C@H](O)[C@@H](O)[C@@H](O[C@H]5[C@H](O)[C@@H](O)[C@@H](O[C@H]6[C@H](O)[C@@H](O)[C@@H](O[C@H]7[C@H](O)[C@@H](O)[C@@H](O[C@H]8[C@H](O)[C@@H](O)[C@@H](O[C@H]9[C@H](O)[C@@H](O)[C@@H](O[C@H]1[C@H](O)[C@H]2O)O[C@@H]9CO)O[C@@H]8CO)O[C@@H]7CO)O[C@@H]6CO)O[C@@H]5CO)O[C@@H]4CO)O[C@@H]3CO [γ-cyclodextrin] | 249.2 mg/mL (≈ 192 mM) | – | –
CCCCCCCO [Heptanol] | – | 1.74 mg/mL (≈ 15 mM) | –
CCCCCO [1-pentanol] | – | 22.4 mg/mL (≈ 254 mM) | –
OCCCCO [1,4-butandiol] | – | – | Solubility in water ([2]; additives other than cyclodextrins, 25°C): miscible
